# Where two headings read alike, the source gives them in different places.
# Key:
# [1] = tested on: HT-29 human colorectal adenocarcinoma xenograft; format: in vivo; details: day 31
# Procedure: The HT-29 human colorectal adenocarcinoma cell line was purchased from American Type Culture Collection (Rockville, MD, U.S.A.). The cells were cultured in McCoy's 5a medium (Sigma-Aldrich Corporation, MO, U.S.A.) supplemented with 10% (v/v) fetal bovine serum (Roche Diagnostics KK, Tokyo, Japan).
# Sixty of 5-week-old male athymic nude mice (BALB/c nu/nu) were purchased from Charles River Japan, Inc. (Yokohama, Japan). All mice were kept for 9 days in the animal facility of Kamakura Research Laboratories of Chugai Pharmaceutical Co., Ltd. before subjection to the experiment.
# Capecitabine was dissolved by the 40 milli mol/L citrate buffered-5% Gum arabic solution (pH 6.0; Chugai Pharmaceutical Co., Ltd.).
# The in vivo evaluation procedure for anticancer drugs was based on the methods described by Plowman, et al. (1997) for xenograft models. See, “Anticancer Drug Development Guide: Preclinical Screening, Clinical Trials, and Approval, Teicher B (ed) pp. 101-125, specifically Chap. 6, “Human Tumor Xenograft Models in NCI Drug Development”, hereby incorporated by reference. A single cell suspension of HT-29 (1.1×10^7 cells per mouse) was inoculated subcutaneously into the right flank of each mouse. The tumor volume was estimated by using the equation ab^2/2, where a and b represent tumor length and width, respectively. Mice bearing tumors of between 172 and 282 mm^3 were selected on day 10 after tumor inoculation and were randomly divided into 7 groups, consisting of 6 mice each. Mean tumor volume and body weight of the selected mice were 217 mm^3 and 25.0 g respectively. Drug administration was initiated after mice were divided into groups. […] Capecitabine (359 mg/kg or 539 mg/kg) and its vehicle were administered orally. Tumor volume and body weight of each mouse were measured twice a week. […] Tumor growth inhibition was calculated using the equation (1-ΔT/ΔC)×100, where ΔT represents the difference in tumor volume from the initial treatment date of the treated group and ΔC represents the difference in tumor volume from the initial treatment date of the vehicle group.
# [2] = tested on: KPL-4 human breast carcinoma xenograft; assay: Antitumor activity in KPL-4 orthotopic xenograft in athymic nude mice, combination with trastuzumab (Example 1); format: in vivo; details: monotherapy 3, 4 or 6 mg/kg; one week after final injection; control 2.5% DMSO-saline plus 20 mg/kg human IgG
# Procedure: The KPL-4 human breast carcinoma cell line was kindly donated by Prof. Kurebayashi, Kawasaki Medical Center. The cells were cultured in Dulbecco's MEM (Sigma Chemical Co.) supplemented with 5% (v/v) fetal bovine serum (Roche Diagnostics).
# One hundred forty (140) 5-week-old female athymic nude mice (BALB/c nu/nu) were purchased from Charles River Japan, Inc. (Yokohama, Japan). The mice were housed in an air-conditioned room (temperature 22±2° C., relative humidity 55±10%) under 12 h light/dark cycles. The mice were given sterilized CE-2 and tap water with 25μg/mL gentamycin ad libitum. […]
# The in vivo evaluation procedure for anticancer drugs was based on the methods described by Plowman, et al. (1997) for xenograft models. […] The tumor volume and body weight of each mouse were measured twice a week. […] One week after the final injection, tumor growth inhibition (TGI) was calculated using the formula (1-T/C)×100 (%), where T (treated group) and C (control group) represent the mean tumor volume change. ED50 values were calculated from values of tumor growth inhibition on day 21 using the XL fit program. […]
# Packaged software (SAS preclinical package version 5.0,SAS Institute Japan, Ltd.) was used for the statistical analysis. […] ED50s were calculated from values of tumor growth inhibition percentage using XL fit program #509 (MS Excel Add […], ID Business Solutions Ltd.)
structure (smiles),measurement,setting,value
"CC[C@H](C)[C@@H]([C@@H](CC(=O)N1CCC[C@H]1[C@H](SC)[C@@H](C)C(=O)N(C)CCc1cccc(O)c1)OC)N(C)C(=O)[C@@H](NC(=O)[C@H](C(C)C)N(C)C)C(C)C [compound of formula (I-A), N-[1-({1-sec-Butyl-4-[2-(2-{[2-(3-hydroxy-phenyl)-ethyl]-methyl-carbamoyl}-1-methylsulfanyl-propyl)-pyrrolidin-1-yl]-2-methoxy-4-oxo-butyl}-methyl-carbamoyl)-2-methyl-propyl]-2-dimethylamino-3-methyl-butyramide]",reduction of tumor growth,[1]; 3 mg/kg (1/2 MTD) i.v. weekly x3,76%
same,reduction of tumor growth,[1]; 4 mg/kg (2/3 MTD) i.v. weekly x3,101%
same,volume of tumor in comparison with control,[2],decreased significantly

# — patent publication US20060292158A1, “Method for the treatment of cancer using a novel pharmaceutical composition containing at least one dolastatin 10 derivative” (priority 2004, published 2006)
